According to patent publication US8697728B2, “Perhexiline for use in the treatment of hypertrophic cardiomyopathy (HCM)” (The University of Birmingham, priority 2009, dated 2014):

Legend:
[1] = system: symptomatic HCM patients; experiment: Radionuclide ventriculography (diastolic ventricular filling, nTTPF); format: in vivo, human; settings: perhexiline group, p=0.03 vs placebo response
Excerpt: (§1) The study was approved by the South Birmingham Research Ethics Committee and the investigation conforms with the principles outlined in the Declaration of Helsinki. All study participants provided written informed consent. The study was a randomized, double blind, placebo-controlled parallel-group design of minimum 3 months duration. FIG. 1 represents a flow chart of the study. The pre-defined primary end point was peak oxygen consumption (peak VO2). Pre-defined secondary end points were symptomatic status, resting myocardial energetics (PCr/γ-ATP ratio) and diastolic function at rest and during exercise (nTTPF). […]
Diastolic filling were assessed by equilibrium R-wave gated blood pool scintigraphy using a standard technique at rest and during graded semi erect exercise on a cycle ergometer (Atherton J J, Moore T D, Lele S S et al. Diastolic ventricular interaction in chronic heart failure. Lancet 1997;349 (9067):1720-1724; Lele S S, Macfarlane D, Morrison S, Thomson H, Khafagi F, Frenneaux M. Determinants of exercise capacity in patients with coronary artery disease and mild to moderate systolic dysfunction. Role of heart rate and diastolic filling abnormalities. Eur Heart J 1996;17(2):204-212). […]
Data were analyzed using SPSS ver. 15.0 for Window and Microsoft Office Excel 2007, and expressed as Mean±Standard Deviation (SD). […]

[2] = system: symptomatic HCM patients; experiment: Side effects and deaths during the study; format: in vivo; settings: perhexiline group (n=25), during the first week of treatment
Excerpt: The study was a randomized, double blind, placebo-controlled parallel-group design of minimum 3 months duration. […] The pre-defined primary end point was peak oxygen consumption (peak VO2). Pre-defined secondary end points were symptomatic status, resting myocardial energetics (PCr/γ-ATP ratio) and diastolic function at rest and during exercise (nTTPF).
Diabetic patients were also excluded to maintain the blindness of the study as Perhexiline may lead to a reduction in plasma glucose in such patients necessitating a reduction in anti-diabetic therapy. 46 consecutive consenting patients who met these entry criteria were recruited into the study.
Following baseline studies, patients were randomized in a double-blind fashion to receive either perhexiline (n=25) or placebo (n=21) 100 mg OD. Serum perhexiline levels were obtained at 1 and 4 weeks after initiation of the drug. Dose adjustments were advised by an unblinded physician according to serum level to achieve therapeutic level and to avoid drug toxicity. Identical dosage adjustments were also made for randomly allocated placebo-treated patients by the unblinded observer to ensure that blinding of the investigators was maintained. At the end of study, patients were re-evaluated as described earlier.

[3] = system: symptomatic HCM patients; experiment: Cardiopulmonary exercise test (peak oxygen consumption), randomized double-blind placebo-controlled study; format: in vivo, human; settings: p=0.003 vs placebo
Excerpt: as §1, with “(nTTPF). 33 controls of similar age and gender distribution were recruited for comparison with baseline data of HCM patients.” for “(nTTPF).”
Following baseline studies, patients were randomized in a double-blind fashion to receive either perhexiline (n=25) or placebo (n=21) 100 mg OD. […] At the end of study, patients were re-evaluated as described earlier.
Data were analyzed using SPSS ver. 15.0 for Window and Microsoft Office Excel 2007, and expressed as Mean±Standard Deviation (SD). Comparison of continuous variables between Perhexiline and Placebo baseline data were determined by unpaired Student's t-test (2-tail) if variables were normally distributed and the Mann-Whitney U-test if the data were non-normally distributed. […]

## C1CCC(C(CC2CCCCN2)C2CCCCC2)CC1 (centres unmarked) [perhexiline, 2-(2,2-dicyclohexylethyl) piperidine]
[1]
  εnTTPF (change of nTTPF from rest to exercise) on therapy: 0.00 ± 0.003 s
[2]
  Side effect: dizziness (number of patients): 2
  Side effect: transient nausea (number of patients): 3
[3]; FIG. 3A legend
  Effect on peak oxygen consumption (peak VO2, exercise capacity), in words: increases
[3]; HCM patients, perhexiline group, after treatment vs baseline
  Change in Peak VO2 after treatment (increase): 2.09 mL/min/kg
